Data reported in paper PMC2892903 (Journal of agricultural and food chemistry, 2010).

Experiment: Plasma pharmacokinetics
Assay type: in vivo, Sprague-Dawley rats
Details: rat plasma, any confection treatment (CDK, CHS, CMP)

Structure (SMILES) | Detection in plasma (HPLC-MS)
Oc1cc(O)c2c(c1)OC(c1ccc(O)c(O)c1)C(O)C2 (racemic) [(±)-C, (±)-catechin] | No intact (±)-C, (±)-C/EC sulfated metabolites or unconjugated O-Me-(±)-C/EC metabolites were detected in the plasma
Oc1cc(O)c2c(c1)O[C@H](c1ccc(O)c(O)c1)[C@H](O)C2 (racemic) [(±)-EC, (−)-epicatechin] | minor component in blood
